# Assay: Photostability under continuous 808 nm laser illumination
# Type: physicochemical
# Conditions: same conditions as CHS2; 808 nm laser illumination (82 mW cm^-2) for 1 h
# Experimental: Fig. 2 (a) Fluorescence emission of CHS2 under 808 nm excitation; (b) photostability of CHS2 in water, PBS and serum under 808 nm laser illumination (105 mW cm^–2) for 1 h; (c) photostability of ICG vs.CHS2 under 808 nm laser illumination (82 mW cm^–2) for 1 h; (d) cellular toxicity of different concentrations of CHS2 in U87MG cell lines.
smiles,measurement,value
"CC1(C)C(/C=C/C=C/C=C/C=C2\N(CCCCS(=O)(=O)O)c3ccc4ccccc4c3C2(C)C)=[N+](CCCCS(=O)(=O)[O-])c2ccc3ccccc3c21 [ICG, indocyanine green]",photostability (fluorescence decay),~50%

# Reference: PMC5892408, “Novel dual-function near-infrared II fluorescence and PET probe for tumor delineation and image-guided surgery” (Chemical Science, 2018)
